# Patent publication US20260000642A1 (Tay Therapeutics Limited, priority 2022, published 2026)
# Several values for one entry are separate records, joined by “and”; a condition that tells them apart may be missing. Equal values may be shown once.
# System: collagen-induced arthritis in Lewis rats
# Assay: Collagen-induced arthritis (CIA) model in rats: body weight, paw volume, clinical scores, clinical observations; on Detailed Clinical Scores, left forelimb: key of the grades not given here; on Detailed Clinical Scores, left hind limb: key of the grades not given here; on Detailed Clinical Scores, right forelimb: key of the grades not given here; on Detailed Clinical Scores, right hind limb: key of the grades not given here; on Detailed Clinical Scores, score: key of the grades not given here; on Overall clinical score: key of the grades not given here
# Conditions: for Animal paw volume / Animal body weight percent change: Group 3 (CIA + Dexamethasone); for Animal paw volume: individual animals 1-8; for Animal paw volume percent change (%): individual animals, CIA + reference compound (Groups 3, 4); for Average animal body weight percent change: CIA + compound; for Detailed Clinical Scores, left forelimb / Detailed Clinical Scores, left hind limb / Detailed Clinical Scores, right forelimb / Detailed Clinical Scores, right hind limb / Detailed Clinical Scores, score: per animal ID; for Overall clinical score: individual CIA rats
# [1] = CIA rats, daily P.O. for 21 days
smiles,measurement,setting,value
C[C@@H]1C[C@H]2[C@@H]3CCC4=CC(=O)C=C[C@]4(C)[C@@]3(F)[C@@H](O)C[C@]2(C)[C@@]1(O)C(=O)CO [dexamethasone],animals that gained weight by the end of the study (of 8),"CIA rats, day 21 vs day 0, daily P.O. for 21 days",4/8
same,diarrhea over the 21-day period,[1],did not have diarrhea
same,"increase in body weight, day 21 compared to day 0",[1],1.3%
same,Animal paw volume,"Day 0, L paw",1.35 mL and 1.31 mL and 1.39 mL and 1.33 mL and 1.30 mL (2×) and 1.34 mL and 1.36 mL
same,Animal paw volume percent change (%),"Day 0, L paw",0.00%
same,Animal paw volume,"Day 0, R paw",1.34 mL and 1.30 mL (2×) and 1.38 mL and 1.35 mL and 1.29 mL and 1.36 mL and 1.37 mL
same,Animal paw volume percent change (%),"Day 0, R paw",0.00%
same,Average animal body weight percent change,Day 0,0.00%
same,"Detailed Clinical Scores, left forelimb","Day 0, CIA",0
same,"Detailed Clinical Scores, left hind limb","Day 0, CIA",0
same,"Detailed Clinical Scores, right forelimb","Day 0, CIA",0
same,"Detailed Clinical Scores, right hind limb","Day 0, CIA",0
same,"Detailed Clinical Scores, score","Day 0, CIA",0
same,Overall clinical score,Day 0,0
same,Average animal body weight percent change,Day 1,−2.80%
same,Average animal body weight percent change,Day 2,−3.22%
same,Average animal body weight percent change,Day 3,−4.37%
same,Average animal body weight percent change,Day 4,−4.95%
same,Average animal body weight percent change,Day 5,−4.95%
same,Animal paw volume,"Day 6, L paw",1.31 mL and 1.29 mL (3×) and 1.34 mL and 1.28 mL
same,Animal paw volume percent change (%),"Day 6, L paw",−2.97% and −1.53% and −3.61% and −3.02% and −3.09% and −3.08% and −4.12% and −5.51%
same,Animal paw volume,"Day 6, R paw",1.30 mL (3×) and 1.28 mL (2×) and 1.34 mL and 1.27 mL
same,Animal paw volume percent change (%),"Day 6, R paw",−3.00% and −1.16% and 2.91% and −1.56% and 12.70% and −5.90% and −5.13%
same,Average animal body weight percent change,Day 6,−4.41%
same,"Detailed Clinical Scores, left forelimb","Day 6, CIA",0
same,"Detailed Clinical Scores, left hind limb","Day 6, CIA",0
same,"Detailed Clinical Scores, right forelimb","Day 6, CIA",0
same,"Detailed Clinical Scores, right hind limb","Day 6, CIA",0
same,"Detailed Clinical Scores, score","Day 6, CIA",0
same,Overall clinical score,Day 6,0
same,Average animal body weight percent change,Day 7,−3.35%
same,Average animal body weight percent change,Day 8,−3.90%
same,Average animal body weight percent change,Day 9,−1.84%
same,Average animal body weight percent change,Day 10,−2.30%
same,Average animal body weight percent change,Day 11,−1.24%
same,Animal paw volume,"Day 12, L paw",1.37 mL and 1.28 mL (2×) and 1.30 mL and 1.29 mL
same,Animal paw volume percent change (%),"Day 12, L paw",−10.41% and −7.66% and −1.44% and −3.40% and −1.54% and −6.54% and −3.00% and −5.51%
same,Animal paw volume,"Day 12, R paw",1.37 mL and 1.27 mL and 1.29 mL
same,Animal paw volume percent change (%),"Day 12, R paw",−6.74% and −3.09% and −0.73% and −7.43% and −1.56% and −9.27% and −7.01% and −5.86%
same,Average animal body weight percent change,Day 12,−1.18%
same,"Detailed Clinical Scores, left forelimb","Day 12, CIA",0
same,"Detailed Clinical Scores, left hind limb","Day 12, CIA",0
same,"Detailed Clinical Scores, right forelimb","Day 12, CIA",0
same,"Detailed Clinical Scores, right hind limb","Day 12, CIA",0
same,"Detailed Clinical Scores, score","Day 12, CIA",0
same,Overall clinical score,Day 12,0
same,Animal paw volume,"Day 13, L paw",1.40 mL and 1.29 mL (2×) and 1.30 mL and 1.31 mL
same,Animal paw volume percent change (%),"Day 13, L paw",−8.92% and −5.36% and 0.72% and −3.02% and 0.00% and −4.23% and −2.25% and −5.51%
same,Animal paw volume,"Day 13, R paw",1.27 mL and 1.38 mL and 1.28 mL and 1.31 mL and 1.29 mL
same,Animal paw volume percent change (%),"Day 13, R paw",−5.99% and −2.32% and 0.36% and −7.43% and −0.78% and −6.95% and −3.69% and −5.86%
same,Average animal body weight percent change,Day 13,−0.91%
same,"Detailed Clinical Scores, left forelimb","Day 13, CIA",0
same,"Detailed Clinical Scores, left hind limb","Day 13, CIA",0
same,"Detailed Clinical Scores, right forelimb","Day 13, CIA",0
same,"Detailed Clinical Scores, right hind limb","Day 13, CIA",0
same,"Detailed Clinical Scores, score","Day 13, CIA",0
same,Overall clinical score,Day 13,0
same,Animal paw volume,"Day 14, L paw",1.39 mL and 1.27 mL and 1.28 mL and 1.29 mL
same,Animal paw volume percent change (%),"Day 14, L paw",−8.18% and −5.36% and 0.00% and −4.53% and −1.54% and −5.00% and −3.75% and −8.46%
same,Animal paw volume,"Day 14, R paw",1.38 mL and 1.29 mL
same,Animal paw volume percent change (%),"Day 14, R paw",−5.62% and −2.70% and 0.00% and −8.92% and −2.33% and −7.72% and −5.17% and −8.06%
same,Average animal body weight percent change,Day 14,−1.24%
same,"Detailed Clinical Scores, left forelimb","Day 14, CIA",0
same,"Detailed Clinical Scores, left hind limb","Day 14, CIA",0
same,"Detailed Clinical Scores, right forelimb","Day 14, CIA",0
same,"Detailed Clinical Scores, right hind limb","Day 14, CIA",0
same,"Detailed Clinical Scores, score","Day 14, CIA",0
same,Overall clinical score,Day 14,0
same,Animal paw volume,"Day 15, L paw",1.36 mL and 1.28 mL and 1.33 mL and 1.27 mL
same,Animal paw volume percent change (%),"Day 15, L paw",−8.92% and −7.28% and −2.17%
same,Animal paw volume,"Day 15, R paw",1.36 mL and 1.27 mL (2×) and 1.32 mL
same,Animal paw volume percent change (%),"Day 15, R paw",−6.74% and −4.25% and −1.45%
same,Average animal body weight percent change,Day 15,0.43%
same,"Detailed Clinical Scores, left forelimb","Day 15, CIA",0
same,"Detailed Clinical Scores, left hind limb","Day 15, CIA",0
same,"Detailed Clinical Scores, right forelimb","Day 15, CIA",0
same,"Detailed Clinical Scores, right hind limb","Day 15, CIA",0
same,"Detailed Clinical Scores, score","Day 15, CIA",0
same,Overall clinical score,Day 15,0
same,Average animal body weight percent change,Day 16,−0.57%
same,Average animal body weight percent change,Day 17,0.62%
same,Animal paw volume,"Day 18, L paw",1.28 mL and 1.45 mL and 1.31 mL and 1.29 mL and 1.34 mL and 1.30 mL
same,Animal paw volume percent change (%),"Day 18, L paw",−5.20% and −6.51% and 4.33%
same,Animal paw volume,"Day 18, R paw",1.28 mL and 1.44 mL and 1.31 mL and 1.29 mL (2×) and 1.34 mL
same,Animal paw volume percent change (%),"Day 18, R paw",−4.49% and −4.63% and 4.36%
same,Average animal body weight percent change,Day 18,1.02%
same,"Detailed Clinical Scores, left forelimb","Day 18, CIA rats",0
same,"Detailed Clinical Scores, left hind limb","Day 18, CIA rats",0
same,"Detailed Clinical Scores, right forelimb","Day 18, CIA rats",0
same,"Detailed Clinical Scores, right hind limb","Day 18, CIA rats",0
same,"Detailed Clinical Scores, score","Day 18, CIA rats",0
same,Overall clinical score,Day 18,0
same,Animal paw volume,"Day 19, L paw",1.28 mL (2×) and 1.44 mL and 1.30 mL (2×) and 1.33 mL
same,Animal paw volume percent change (%),"Day 19, L paw",−5.20% and −6.90% and 3.61%
same,Animal paw volume,"Day 19, R paw",1.27 mL (2×) and 1.44 mL and 1.31 mL and 1.32 mL and 1.30 mL
same,Animal paw volume percent change (%),"Day 19, R paw",−5.24% and −6.18%
same,Average animal body weight percent change,Day 19,1.53%
same,"Detailed Clinical Scores, left forelimb","Day 19, CIA rats",0
same,"Detailed Clinical Scores, left hind limb","Day 19, CIA rats",0
same,"Detailed Clinical Scores, right forelimb","Day 19, CIA rats",0
same,"Detailed Clinical Scores, right hind limb","Day 19, CIA rats",0
same,"Detailed Clinical Scores, score","Day 19, CIA rats",0
same,Overall clinical score,Day 19,0
same,Average animal body weight percent change,Day 20,1.66%
same,Animal paw volume,"Day 21, L paw",1.43 mL and 1.31 mL (2×) and 1.30 mL (2×)
same,Animal paw volume percent change (%),"Day 21, L paw",−6.32% and −6.90%
same,Animal paw volume,"Day 21, R paw",1.43 mL and 1.31 mL and 1.30 mL (2×) and 1.32 mL
same,Animal paw volume percent change (%),"Day 21, R paw",−5.99% and −6.18%
same,Average animal body weight percent change,Day 21,1.30%
same,"Detailed Clinical Scores, left forelimb","Day 21, CIA rats",0
same,"Detailed Clinical Scores, left hind limb","Day 21, CIA rats",0
same,"Detailed Clinical Scores, right forelimb","Day 21, CIA rats",0
same,"Detailed Clinical Scores, right hind limb","Day 21, CIA rats",0
same,"Detailed Clinical Scores, score","Day 21, CIA rats",0
same,Overall clinical score,Day 21,0
same,Animal body weight percent change,"Day 0, individual animals",0.00%
same,Animal body weight percent change,"Day 1, individual animals",0.66% and −7.41% and −1.72% and −2.37% and −1.20% and −6.21%
same,Animal body weight percent change,"Day 2, individual animals",−0.66% and −6.79% and 1.15% and −1.78% and −3.01% and −8.07%
same,Animal body weight percent change,"Day 3, individual animals",−1.99% and −11.11% and 0.57% and −2.96% and −2.41% and −9.94%
same,Animal body weight percent change,"Day 4, individual animals",−2.65% and −9.26% and −2.30% and −5.33% and −6.02%
same,Animal body weight percent change,"Day 5, individual animals",−2.65% and −8.02% and −5.17% and −2.96% and −4.82%
same,Animal body weight percent change,"Day 6, individual animals",−2.65% and −6.17% and −1.72% and −4.73% and −6.63%
same,Animal body weight percent change,"Day 7, individual animals",−0.66% and −5.56% and 2.30% and −4.14% and −3.61%
same,Animal body weight percent change,"Day 15, individual animals",9.93% and −3.09% and 2.30% and 0.59% and −1.20% and −6.83% and 2.33% and −0.63%
same,Animal body weight percent change,"Day 16, individual animals",3.97% and −5.56% and 7.47% and −0.59% and −4.22% and −8.70% and 1.16% and 1.88%
same,Animal body weight percent change,"Day 17, individual animals",5.96% and −4.32% and 8.05% and −2.37% and 0.60% and −6.83% and −1.16% and 5.00%
same,Animal body weight percent change,"Day 18, individual animals",3.97% and −6.17% and 8.62% and −2.37% and 0.00% and −5.59% and 4.07% and 5.63%
same,Animal body weight percent change,"Day 19, individual animals",7.28% and −9.26% and 10.34% and 0.59% and 1.20% and −5.59% and 5.81% and 1.88%
same,Animal body weight percent change,"Day 20, individual animals",7.95% and −3.70% and 5.75% and 2.37% and 0.60% and −4.35% and 4.65% and 0.00%
same,Animal body weight percent change,"Day 21, individual animals",8.61% and −3.70% and 7.47% and 0.00% and −3.01% and −5.59% and 2.91% and 3.75%
